Assay results from US9907737B2, “Composition comprising ferulic acid ethyl ester and aryl alkanol” (L'AIR LIQUIDE, SOCIETE ANONYME POUR L'ETUDE ET …, priority 2013, dated 2018).
Marks after values point to notes of the source that are not given here.

What was measured:
[1] = Water solubility (statement); assay type: physicochemical
[2] = system: A. brasiliensis ATCC: 16404; experiment: Bacterial count reduction test (method 1), A. brasiliensis; assay type: cell-based, Aspergillus brasiliensis
Protocol: (§1) Method 1: Bacterial Count Reduction Test
(§2) The aim of this bacterial count reduction test is to determine suitable preservatives and reaction times for samples injected in the laboratory.
(§3) Staphylococcus aureus, Escherichia coli or Pseudomonas aeruginosa, Candida albicans, Aspergillus brasiliensis
A 7 to 14 days old Aspergillus brasiliensis culture on SA agar (25° C.±1° C.) is washed with 5 ml physiological NaCl, filtered by a glass funnel with glass wool and filled with physiological NaCl to 100 ml. The titre of the Aspergillus brasiliensis suspension is about 10^7 CFU/ml.
(§4) The titres of the respectively produced test organism suspensions are determined by means of a dilution series in physiological NaCl and recorded.
(§5) The samples are displaced with different concentrations of suitable preservatives. For each test bacterium a dilution series is required. The samples are injected individually with the respective test organism suspension and stirred well:
(§6) 25 g samples=0.1 ml bacterial suspension
(§7) 50 g samples=0.2 ml bacterial suspension.
(§8) After the indicated reaction times the samples are firstly stirred homogenously with a sterile glass rod and then spread onto CSA or SA agar. The bacteria samples are spread onto CSA and incubated for 48 hours at 37° C. The mould and yeast samples are spread onto SA agar and incubated for 48 hours at 37° C. (Candida albicans) and at 25° C. (Aspergillus brasiliensis).

[3] = Antimicrobial effect (preliminary work, general statements); conditions: preliminary work / general statement
C. albicans ATCC: 10231 = experiment: Bacterial count reduction test (method 1), C. albicans; assay type: cell-based, Candida albicans
Protocol: as §1, §2, §3
A 4 day old Candida albicans culture on SA-agar (II subculture) is washed with 5 ml physiological NaCl and adjusted according to a barium sulphate standard (cf. DVG Guidelines). The titer of the Candida albicans suspension is 10^8 CFU/ml.
as §4, §5, §6, §7, §8

P. aeruginosa ATCC: 9027 = experiment: Bacterial count reduction test (method 1), P. aeruginosa; assay type: cell-based, Pseudomonas aeruginosa; conditions: o/w-Lotion, initial bacterial count 1.2 × 10^9
Protocol: as §1, §2, §3, §4, §5, §6, §7, §8

S. aureus ATCC: 6538 = experiment: Bacterial count reduction test (method 1), S. aureus; assay type: cell-based, Staphylococcus aureus
Protocol: as §1, §2, §3
(§9) From a 24-hour CS-angular agar culture (I subculture) of Staphylococcus aureus/Escherichia coli 24-hour CSL-cultures (II subculture) are created. The incubation is carried out at 37° C. The titer of the bacterial suspension is about 10^9 CFU/ml.
as §4, §5, §6, §7, §8

E. coli ATCC: 11229 = experiment: Bacterial count reduction test (method 1), E. coli; assay type: cell-based, Escherichia coli; conditions: o/w cream, initial bacterial count 1.3 × 10^9
Protocol: as §1, §2, §3, §9, §4, §5, §6, §7, §8

[4] = o/w cream, initial bacterial count 1.5 × 10^7
[5] = o/w-Lotion, initial bacterial count 7.7 × 10^7
[6] = o/w cream, initial bacterial count 4.1 × 10^8
[7] = o/w-Lotion, initial bacterial count 5.4 × 10^8
[8] = o/w cream, initial bacterial count 1 × 10^9
[9] = o/w-Lotion, initial bacterial count 2.2 × 10^9

SMILES | Growth of A. brasiliensis ATCC: 16404 after 24 hours [2, 4] | Growth of A. brasiliensis ATCC: 16404 after 72 hours [2, 4] | Growth of A. brasiliensis ATCC: 16404 after 168 hours [2, 4] | Growth of A. brasiliensis ATCC: 16404 after 336 hours [2, 4] | Growth of A. brasiliensis ATCC: 16404 after 24 hours [2, 5] | Growth of A. brasiliensis ATCC: 16404 after 72 hours [2, 5] | Growth of A. brasiliensis ATCC: 16404 after 168 hours [2, 5] | Growth of A. brasiliensis ATCC: 16404 after 336 hours [2, 5] | Antimicrobial effect, in words [3] | Growth of C. albicans ATCC: 10231 after 24 hours (C. albicans ATCC: 10231; [6]) | Growth of C. albicans ATCC: 10231 after 72 hours (C. albicans ATCC: 10231; [6]) | Growth of C. albicans ATCC: 10231 after 168 hours (C. albicans ATCC: 10231; [6]) | Growth of C. albicans ATCC: 10231 after 336 hours (C. albicans ATCC: 10231; [6]) | Growth of C. albicans ATCC: 10231 after 24 hours (C. albicans ATCC: 10231; [7]) | Growth of C. albicans ATCC: 10231 after 72 hours (C. albicans ATCC: 10231; [7]) | Growth of C. albicans ATCC: 10231 after 168 hours (C. albicans ATCC: 10231; [7]) | Growth of S. aureus ATCC: 6538 after 24 hours (S. aureus ATCC: 6538; [8]) | Growth of S. aureus ATCC: 6538 after 72 hours (S. aureus ATCC: 6538; [8]) | Growth of S. aureus ATCC: 6538 after 168 hours (S. aureus ATCC: 6538; [8]) | Growth of E. coli ATCC: 11229 after 24 hours (E. coli ATCC: 11229) | further results
CCOC(=O)/C=C/c1ccc(O)c(OC)c1 [0.1% ferulic acid-ethyl ester, ferulic acid ethyl ester] | ++++ (Massive growth About 10^5) | ++++ (Massive growth About 10^5) | ++++ (Massive growth About 10^5) | +++ (Heavy growth About 10^4) | ++ (Moderate growth About 10^3) | +++ (Heavy growth About 10^4) | +++ (Heavy growth About 10^4) | ++++ (Massive growth About 10^5) | much weaker antimicrobial effect than ferulic acid itself | R (Surface covered About 10^6) | R (Surface covered About 10^6) | R (Surface covered About 10^6) | R (Surface covered About 10^6) | ++++ (Massive growth About 10^5) | ++++ (Massive growth About 10^5) | ++++ (Massive growth About 10^5) | ++++ (Massive growth About 10^5) | R (Surface covered About 10^6) | R (Surface covered About 10^6) | R (Surface covered About 10^6) | Water solubility, in words [1]: poor water solubility; Growth of C. albicans ATCC: 10231 after 336 hours (C. albicans ATCC: 10231; [7]): ++++ (Massive growth About 10^5); Growth of P. aeruginosa ATCC: 9027 after 24 hours (P. aeruginosa ATCC: 9027): ++++ (Massive growth About 10^5); Growth of P. aeruginosa ATCC: 9027 after 72 hours (P. aeruginosa ATCC: 9027): ++++ (Massive growth About 10^5); Growth of P. aeruginosa ATCC: 9027 after 168 hours (P. aeruginosa ATCC: 9027): ++++ (Massive growth About 10^5); Growth of P. aeruginosa ATCC: 9027 after 336 hours (P. aeruginosa ATCC: 9027): ++++ (Massive growth About 10^5); Growth of S. aureus ATCC: 6538 after 336 hours (S. aureus ATCC: 6538; [8]): ++++ (Massive growth About 10^5); Growth of S. aureus ATCC: 6538 after 24 hours (S. aureus ATCC: 6538; [9]): ++++ (Massive growth About 10^5); Growth of S. aureus ATCC: 6538 after 72 hours (S. aureus ATCC: 6538; [9]): ++++ (Massive growth About 10^5); Growth of S. aureus ATCC: 6538 after 168 hours (S. aureus ATCC: 6538; [9]): +++ (Heavy growth About 10^4); Growth of S. aureus ATCC: 6538 after 336 hours (S. aureus ATCC: 6538; [9]): +++ (Heavy growth About 10^4); Growth of E. coli ATCC: 11229 after 72 hours (E. coli ATCC: 11229): R (Surface covered About 10^6); Growth of E. coli ATCC: 11229 after 168 hours (E. coli ATCC: 11229): ++++ (Massive growth About 10^5); Growth of E. coli ATCC: 11229 after 336 hours (E. coli ATCC: 11229): R (Surface covered About 10^6)
CCCCC(CC)COC(=O)/C=C/c1ccc(O)c(OC)c1 (centres unmarked) [0.1% ferulic acid-2-ethylhexylester, ferulic acid (2-ethyl hexyl) ester] | R (Surface covered About 10^6) | ++++ (Massive growth About 10^5) | ++++ (Massive growth About 10^5) | ++++ (Massive growth About 10^5) | ++++ (Massive growth About 10^5) | ++++ (Massive growth About 10^5) | ++++ (Massive growth About 10^5) | ++++ (Massive growth About 10^5) |  | ++++ (Massive growth About 10^5) | ++++ (Massive growth About 10^5) | ++++ (Massive growth About 10^5) | ++++ (Massive growth About 10^5) | R (Surface covered About 10^6) | R (Surface covered About 10^6) | ++++ (Massive growth About 10^5) | ++++ (Massive growth About 10^5) | ++++ (Massive growth About 10^5) | ++++ (Massive growth About 10^5) | R (Surface covered About 10^6) | Growth of C. albicans ATCC: 10231 after 336 hours (C. albicans ATCC: 10231; [7]): ++++ (Massive growth About 10^5); Growth of P. aeruginosa ATCC: 9027 after 24 hours (P. aeruginosa ATCC: 9027): +++ (Heavy growth About 10^4); Growth of P. aeruginosa ATCC: 9027 after 72 hours (P. aeruginosa ATCC: 9027): ++++ (Massive growth About 10^5); Growth of P. aeruginosa ATCC: 9027 after 168 hours (P. aeruginosa ATCC: 9027): ++++ (Massive growth About 10^5); Growth of P. aeruginosa ATCC: 9027 after 336 hours (P. aeruginosa ATCC: 9027): ++++ (Massive growth About 10^5); Growth of S. aureus ATCC: 6538 after 336 hours (S. aureus ATCC: 6538; [8]): +++ (Heavy growth About 10^4); Growth of S. aureus ATCC: 6538 after 24 hours (S. aureus ATCC: 6538; [9]): R (Surface covered About 10^6); Growth of S. aureus ATCC: 6538 after 72 hours (S. aureus ATCC: 6538; [9]): ++++ (Massive growth About 10^5); Growth of S. aureus ATCC: 6538 after 168 hours (S. aureus ATCC: 6538; [9]): ++++ (Massive growth About 10^5); Growth of S. aureus ATCC: 6538 after 336 hours (S. aureus ATCC: 6538; [9]): ++++ (Massive growth About 10^5); Growth of E. coli ATCC: 11229 after 72 hours (E. coli ATCC: 11229): ++++ (Massive growth About 10^5); Growth of E. coli ATCC: 11229 after 168 hours (E. coli ATCC: 11229): R (Surface covered About 10^6); Growth of E. coli ATCC: 11229 after 336 hours (E. coli ATCC: 11229): R (Surface covered About 10^6)
OCCCc1ccccc1 [0.75% 3-phenyl-propanol-1, 3-phenyl-1-propanol] | ++++ (Massive growth About 10^5) | +++ (Heavy growth About 10^4) | + (Slight growth About 10^2) |  |  |  |  |  | good anti-microbial effect | ++++ (Massive growth About 10^5) | ++++ (Massive growth About 10^5) | + (Slight growth About 10^2) |  |  |  |  | ++++ (Massive growth About 10^5) | ++++ (Massive growth About 10^5) | +++ (Heavy growth About 10^4) | ++ (Moderate growth About 10^3) | 
